Measured values published in patent US10704076B2, “Multi-tiered high through-put screen for compounds effective against bacterial biofilm and compounds effective for inhibiting and eradicating bacterial biofilm” (University of Cincinnati, priority 2013, dated 2020).
“Also recorded” adds a separate entry of the source.

Key:
[1] = tested on: P. aeruginosa; experiment: HTS total bacterial growth assay (optical density OD560); format: cell-based, Pseudomonas aeruginosa; settings: for AC50: Pseudomonas aeruginosa, 10 point dose-response 0.1-50 μM, read-out: Total Bacteria Growth AC50
Text: (§1) Each HTS tier consisted of: (i) primary screening, (ii) confirmation screening and (iii) dose-response curve screening. Each tier of HTS included three distinct biological process assays. The first assay was an optical density measurement of bacteria growth in the presence of each compound reported as a total bacteria growth. In the second assay, resazurin solution was used as an indicator of metabolic activity to measure the live bacteria in the biofilms, reported as live biofilm. The final assay was crystal violet staining, which indicated the amount of biofilm formation and the effect of each compound on this process, reported as total biofilm formation.
(§2) Briefly, stationary phase bacteria grown in L-broth were diluted 1:200 into fresh L-broth and 50 μM of each test compound. After 20-24 hours, the optical density (OD560) of each suspension was measured using Zeiss Plate::Vision with a 560 BP filter (560 nm, 2.5% light intensity, 1 mm focus to bottom of plate, and exposure time of 100 ms). To measure bacterial viability in the biofilm, 50 μl of a 5 mg/ml resazurin solution in L-broth was added to each well after washing 3 times with 50 μl of PBS. The plates were then incubated at 37° C. for 30 or 180 min for A. baumannii and P. aeruginosa biofilms, respectively. Fluorescence was measured using Zeiss Plate::Vision at excitation and emission wavelengths of 535 and 580 nm, 100 ms exposure time, 2.5% intensity and a 2 mm focus to the bottom of the biofilms. To assess biofilm formation, plates were washed 3 times with PBS and then 50 μl of 0.01% of crystal violet was added to each well to assess bacterial biofilm formation as described in a similar borosilicate tube assay by O'Toole and Kolter. After incubation at room temperature for 30 min and removal of the crystal violet solution by washing with PBS, 95% ethanol was added to solubilize the crystal violet followed by incubation for 20 min at room temperature. Finally, the optical density of each plate was determined using measured by Zeiss Plate::Vision using the same settings used to measure total bacterial growth. These 3 steps were used in each of the three tiers for the HTS process: (i) single point primary screening at 10 μM, (ii) triplicate confirmation of hits from (i) at 10 μM and (iii) determination of AC50 values in 10 point dose-response at a concentration range of 0.1-50 μM) in hits from (ii). The AC50 represents the concentration of compound that inhibits 50% of bacterial growth, bacterial viability, or biofilm formation. Genedata Screener® Assay Analyzer Software (Ver. 9.0.0 Standard) was used to analyze data from all assay tiers. Compounds with an AC50 of less than 20 μM in one of the biological assays from the dose response screen were subject to additional investigation.

[2] = tested on: A. baumannii biofilm; experiment: HTS live biofilm assay (resazurin metabolic activity); format: cell-based, Acinetobacter baumannii; settings: for AC50: Acinetobacter baumannii, 10 point dose-response 0.1-50 μM
Text: as §1, §2

[3] = tested on: A. baumannii biofilm; experiment: CLSM, co-culture of bacteria with compound (inhibition of biofilm formation); format: cell-based, Acinetobacter baumannii; settings: for killing of residential bacteria, co-culture (CLSM, in words): 10 μM; for Co-culture of bacteria with compound: Killing: Y / —
Procedure: (§3) Broad spectrum agents (effective against all three bacterial species) and single agent compounds identified as HTS hits were investigated with CLSM confirmation of inhibition of biofilm formation (culture of bacteria with compounds) or killing of bacteria residing within an established biofilm (compound addition after culturing biofilm). To evaluate inhibition of P. aeruginosa biofilms, bacteria were sub-cultured into 10% L-broth and grown at 37° C. until the OD600 reached 0.25. The bacteria were further diluted 1:100 into a modified 0.5×M63 minimum media (50 mM KH2PO4, 7.5 mM (NH4)2SO4, 9 μM FeSO4, 0.5% casamino acids, 0.2% glucose, and 1 mM MgSO4). A. baumannii biofilms were also grown in 10% L-broth until the OD600 reached 0.05 but diluted 1:10 into 5% L-broth media. S. epidermidis biofilm cultures were grown. Briefly, the bacteria were grown in TSB until the OD600 reached 0.75, and a 1:100 dilution of the bacteria was sub-cultured into phosphate buffered saline (PBS). All of the biofilm bacterial cultures were grown in 96-well plate chambers (MatTek Corp., Ashland, Mass.) in the presence of 10 μM of each compound or DMSO as a control and incubated for 18 hrs at 37° C. To investigate the ability of compounds to kill bacteria within pre-existing biofilms, biofilms were grown under the same conditions, but without test compound. These biofilms were washed once with PBS and incubated an additional 24 hr at 37° C. in PBS containing 300 μM of each compound. All biofilm cultures were then washed twice with 100 μL of PBS and stained using the LIVE/DEAD® BacLight™ Bacterial Viability Kit (Invitrogen). Finally, biofilm images were obtained using a Zeiss LSM510 META Confocal Microscope (Carl Zeiss, Inc., Germany). A 488 nm laser was used in conjunction with a Plan-Apochromat 100×/1.4 Oil DIC objective. Z-stacks were 8 bit and measured 127.3 μm×127.3 μm×16.0 μm in size. The filters used were 505-530 and 620-680 IR, as the excitation and emission wavelengths for red fluorescence are 490 nm and 635 nm, respectively, and 480 nm and 500 nm for green fluorescence. Three dimensional images were generated using the “Projection” ability on LSM Image Browser software (v.1.4.0.121) or Zeiss LSM image browser software version 3.5 (Carl Zeiss, Inc., Germany), and Live/Dead calculations were conducted based upon these images using MacBiophotonics ImageJ following the guidelines in the cell counting guide by C. Labno {Rasband, 1997-2011 #25; Labno, #2} at the University of Chicago Integrated Light Microscopy Core. The thickness of the biofilm was calculated using Comstat software. A hit was defined as a >50% dead to live ratio.
(§4) The CLSM experiment was performed in one or two or all bacteria used in this study depending on its activity. For the validation of HTS hits, 10 μM of compound was added to each bacterial suspension and the resulting biofilm stained with LIVE/DEAD® BacLight™ Bacterial Viability Kit. The images were analyzed to determine the live and dead ratios of biofilm bacteria, the thickness of biofilms, and structural attributes of biofilms.

[4] = tested on: P. aeruginosa established biofilm; experiment: CLSM, effect of compound on the pre-existing biofilm; format: cell-based, Pseudomonas aeruginosa; settings: for Effect of compound on the pre-existing biofilm: Dispersion: ** = Bacterial morphology changed
Procedure: as §3, §4

O=C(O)c1cn(C2CC2)c2c(F)c(-c3ccncc3)c(F)cc2c1=O [Compound 11, 7-(4-pyridyl)-1-cyclopropyl-6,8-difluoro-4-oxoquinoline-3-carboxylic acid]
AC50 [1]: 16 µM
AC50 [2]: 0.61 µM
Co-culture of bacteria with compound: Inhibit biofilm formation ([3]; CLSM, 10 μM compound, 18 hrs): inhibited biofilm formation
biofilm architecture / thickness of established P. aeruginosa biofilm (CLSM) ([4]; 300 μM): thinner biofilm architecture
Effect of compound on the pre-existing biofilm: Dispersion ([4]; CLSM, 300 μM compound, 24 hr): caused dispersion and Y**
bacterial morphology in established P. aeruginosa biofilm (CLSM) [4]: altered the morphology

Cn1sc(Cl)c(C#N)c1=O [Compound 3, 5-chloro-2-methyl-3-oxo-1,2-thiazole-4-carbonitrile]
AC50 [1]: 9.27 µM
AC50 [2]: 4.04 µM
killing of residential bacteria, co-culture (CLSM, in words) [3]: killed residential bacteria
Co-culture of bacteria with compound: Killing ([3]; CLSM, 10 μM compound, 18 hrs): Y (A hit was defined as a >50% dead to live ratio)
killing of established P. aeruginosa biofilm (CLSM, in words) ([4]; 300 μM, 24 hr): demonstrated killing; also recorded: effective at killing
Effect of compound on the pre-existing biofilm: Killing ([4]; CLSM, 300 μM compound, 24 hr, Y / —): Y (A hit was defined as a >50% dead to live ratio)

O=C(O)c1cn(C2CC2)c2c(F)c(N3CC(O)C3)c(F)cc2c1=O [Compound 8, 1-cyclopropyl-6,8-difluoro-7-(3-hydroxyazetidin-1-yl)-4-oxoquinoline-3-carboxylic acid]
AC50 [1]: 44.4 µM
HTS assay results: Total Bacteria growth ([1]; Y / —): —* (AC50 higher than 20 μM)
AC50 [2]: 2.33 µM
HTS assay results: Live Bacteria ([2]; Y / —): —* (AC50 higher than 20 μM)
killing of residential bacteria, co-culture (CLSM, in words) [3]: killed residential bacteria
Co-culture of bacteria with compound: Killing ([3]; CLSM, 10 μM compound, 18 hrs): Y (A hit was defined as a >50% dead to live ratio)
biofilm architecture / thickness of established P. aeruginosa biofilm (CLSM) ([4]; 300 μM): thinner biofilm architecture
Effect of compound on the pre-existing biofilm: Dispersion ([4]; CLSM, 300 μM compound, 24 hr): caused dispersion and Y**
bacterial morphology in established P. aeruginosa biofilm (CLSM) [4]: altered the morphology

NC(=S)N1CCN(c2cc3c(cc2F)c(=O)c(C(=O)O)cn3C2CC2)CC1 [Compound 7, 7-(4-carbamothioylpiperazin-1-yl)-1-cyclopropyl-6-fluoro-4-oxoquinoline-3-carboxylic acid]
AC50 [1]: 3 µM
AC50 [2]: 8.45 µM
killing of residential bacteria, co-culture (CLSM, in words) [3]: killed residential bacteria
Co-culture of bacteria with compound: Killing ([3]; CLSM, 10 μM compound, 18 hrs): Y (A hit was defined as a >50% dead to live ratio)
Effect of compound on the pre-existing biofilm: Dispersion ([4]; CLSM, 300 μM compound, 24 hr): caused dispersion and Y**
bacterial morphology in established P. aeruginosa biofilm (CLSM) [4]: altered the morphology
